Laboratory results: patent US12384797B2, “Thioeno[3,2-b] pyridin-7-amine compounds for treating familial dysautonomia” (PTC THERAPEUTICS, INC., priority 2019, dated 2025)

Tested on: Elongator complex protein 1 (ELP1, also referred to as IKBKAP)
Test: IKBKAP-HTRF assay (IKBKAP protein in lysates of FD patient-derived fibroblasts)
Format: cell-based, human
Settings: 48 hours incubation, 7-point concentration curve
Procedure, shortened: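 Sandwich HTRF with two labelled anti-IKAP antibodies (overnight, 4 °C) measured IKBKAP in lysates of FD patient fibroblasts. Cells were exposed to compound for 48 h at 37 °C (7-point curve, 3.16-fold steps, triplicates). EC2x is the dose doubling IKBKAP versus DMSO control; MFI is sample ΔF divided by vehicle ΔF.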

## N[C@@H](CO)Cc1cc2nc(Cl)cc(NCc3cccs3)c2s1 [Compound 162, (2R)-2-amino-3-(5-chloro-7-{[(thiophen-2-yl)methyl]amino}thieno[3,2-b]pyridin-2-yl)propan-1-ol]
  EC2x for IKBKAP protein expression (concentration producing two times the amount of IKBKAP protein vs DMSO vehicle control): ***** (≤0.005 μM is indicated by five stars (*****))
  MFI (maximum fold increase in IKBKAP protein abundance relative to the vehicle control): **** (between >3.9 and ≤4.9 is indicated by four stars (****))

## Cc1c(NC[C@H](C)N)sc2c(NCc3cccs3)cc(Cl)nc12 [Compound 163, N^2-[(2S)-2-aminopropyl]-5-chloro-3-methyl-N^7-[(thiophen-2-yl)methyl]thieno[3,2-b]pyridine-2,7-diamine]
  EC2x for IKBKAP protein expression (concentration producing two times the amount of IKBKAP protein vs DMSO vehicle control): *** (between >0.02 μM and ≤0.5 μM is indicated by three stars (***))
  MFI (maximum fold increase in IKBKAP protein abundance relative to the vehicle control): **** (between >3.9 and ≤4.9 is indicated by four stars (****))

## Cc1c(NC[C@@H](C)N)sc2c(NCc3cccs3)cc(Cl)nc12 [Compound 164, N^2-[(2R)-2-aminopropyl]-5-chloro-3-methyl-N^7-[(thiophen-2-yl)methyl]thieno[3,2-b]pyridine-2,7-diamine]
  EC2x for IKBKAP protein expression (concentration producing two times the amount of IKBKAP protein vs DMSO vehicle control): *** (between >0.02 μM and ≤0.5 μM is indicated by three stars (***))
  MFI (maximum fold increase in IKBKAP protein abundance relative to the vehicle control): *** (between >2.9 and ≤3.9 is indicated by three stars (***))

## C[C@@H](O)[C@H](N)Cc1sc2c(NCc3ccco3)cc(Cl)nc2c1Br [Compound 165, (2R,3R)-3-amino-4-(3-bromo-5-chloro-7-{[(furan-2-yl)methyl]amino}thieno[3,2-b]pyridin-2-yl)butan-2-ol]
  EC2x for IKBKAP protein expression (concentration producing two times the amount of IKBKAP protein vs DMSO vehicle control): ***** (≤0.005 μM is indicated by five stars (*****))
  MFI (maximum fold increase in IKBKAP protein abundance relative to the vehicle control): ***** (>4.9 is indicated by five stars (*****))

## C#C[C@H](N)Cc1sc2c(NCc3ccco3)cc(Cl)nc2c1Cl [Compound 166, 2-[(2R)-2-aminobut-3-yn-1-yl]-3,5-dichloro-N-[(furan-2-yl)methyl]thieno[3,2-b]pyridin-7-amine]
  EC2x for IKBKAP protein expression (concentration producing two times the amount of IKBKAP protein vs DMSO vehicle control): ***** (≤0.005 μM is indicated by five stars (*****))
  MFI (maximum fold increase in IKBKAP protein abundance relative to the vehicle control): **** (between >3.9 and ≤4.9 is indicated by four stars (****))

## C[S+]([O-])C[C@H](N)Cc1sc2c(NCc3ccco3)cc(Cl)nc2c1Cl (stereo partly drawn) [Compound 167, [(2R)-2-amino-3-(3,5-dichloro-7-{[(furan-2-yl)methyl]amino}thieno[3,2-b]pyridin-2-yl)propyl](methyl)sulfaniumolate]
  EC2x for IKBKAP protein expression (concentration producing two times the amount of IKBKAP protein vs DMSO vehicle control): ***** (≤0.005 μM is indicated by five stars (*****))
  MFI (maximum fold increase in IKBKAP protein abundance relative to the vehicle control): ***** (>4.9 is indicated by five stars (*****))
